Laboratory results from patent publication US20230042509A1, “TREATMENT FOR DISEASES CAUSED BY RNA VIRUSES” (Amerimmune LLC, priority 2021, published 2023).

What was measured:
[1] = tested on: PBMCs isolated from COVID-19 patient samples; assay: "Red ring" contaminating RBC layer in PBMC preparation; type: cell-based, human; settings: 1 micromolar, room temperature, 17 hours
Text: One of the observations made during the preparation of peripheral blood mononuclear cells (PBMC) for some of the experiments described herein was the presence of a contaminating red blood cell (RBC) layer in the PBMC layer, which was referred to as a “red ring”. This “red ring” was present in all COVID-19 patient samples, with no difference between critically ill patients and those who were only on supportive care outside the ICU setting (see FIG. 12A).
When PBMCs isolated from COVID-19 patient samples were incubated with Emricasan (1 micromolar) at room temperature for 17 hours, a decrease in the “red ring” was observed.

Caspase 1 = molecular target: T1, Caspase 1 (Homo sapiens, UniProt P29466); assay: FLICA flow cytometry of active caspase-1 in PBMCs from Emricasan-treated COVID-19(+) whole blood (Example 7); type: cell-based; settings: 1 μM, 17 hours (overnight) at room temperature on a rocker; 3 samples from COVID-19 patients
T1 sequence (P29466 120-297 limits assumed): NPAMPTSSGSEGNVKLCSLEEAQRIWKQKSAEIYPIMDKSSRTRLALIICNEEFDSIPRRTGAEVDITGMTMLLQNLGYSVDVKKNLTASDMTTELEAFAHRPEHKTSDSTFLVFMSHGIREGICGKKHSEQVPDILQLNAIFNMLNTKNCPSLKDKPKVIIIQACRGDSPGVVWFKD
T1 sequence (P29466 317-404 limits assumed): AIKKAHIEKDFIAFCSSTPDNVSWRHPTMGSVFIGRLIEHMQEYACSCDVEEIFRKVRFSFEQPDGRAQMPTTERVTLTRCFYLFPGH

caspase-1 = caspase-1 (Homo sapiens, UniProt P29466); assay: Ex vivo stimulation study: active caspase-1 in CD4 T cells after whole blood incubation with caspase inhibitors (Example 9); type: cell-based; settings: whole blood incubated with inhibitor, 24 hrs later with or without nigericin stimulation
caspase-3 = molecular target: T2, caspase-3 (Homo sapiens, UniProt P42574); assay: Caspase-3 in red blood cells incubated with patient plasma; type: cell-based
T2 construct: EMR suppressed the caspase-3 up-regulation in the COVID-19 plasma incubated samples; endogenous in cells; host or cells: red blood cells of healthy subjects incubated with patient plasma
T2 sequence (P42574 29-277): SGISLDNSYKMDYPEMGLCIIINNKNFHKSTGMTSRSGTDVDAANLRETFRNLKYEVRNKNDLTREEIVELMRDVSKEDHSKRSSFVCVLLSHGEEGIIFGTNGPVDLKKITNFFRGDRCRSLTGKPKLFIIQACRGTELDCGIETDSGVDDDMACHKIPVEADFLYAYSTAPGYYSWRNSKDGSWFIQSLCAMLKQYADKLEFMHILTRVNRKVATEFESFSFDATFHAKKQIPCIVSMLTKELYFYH

mild COVID-19 = assay: Phase 1 double-blinded placebo-controlled safety and tolerability study in mild-COVID-19 outpatients; type: in vivo, human
Protocol: A double-blinded, placebo-controlled randomized safety and tolerability study (1:1 active:placebo) was performed in a number symptomatic outpatient mild-COVID-19 patients receiving standard of care therapy. A total of 13 patients were enrolled at a single site in New York City. Treatment involved administering Emricasan (EMR) (or placebo) at 25 mg BID dosing for 14 days, with follow-up for an additional month. […] This study was thus designed to evaluate safety and tolerability, with the primary endpoint being the difference, if any, between treatment-related adverse events (AEs), including severe adverse events (SAEs), if any, in the active (EMR) and placebo groups through day 14. The pharmacokinetics (PK) of EMR has been extensively studied in earlier clinical trials. Accordingly, patients in this Phase 1 study were sampled at the end of the study to confirm that Emricasan pharmacokinetics was not altered in COVID-19 patients. Secondary endpoints included various clinical and laboratory measures and patient reported outcomes (PROs) using a COVID-19-related assessment tool.

[2] = in vivo; cited from earlier work

Row | Structure (SMILES) | "red ring" (contaminating RBC layer) [1] | samples with inhibition of nigericin-induced Caspase-1 activity (Caspase 1) | T-helper cell caspase-1 expression in COVID-19 samples (caspase-1) | T-helper cell caspase-1 upregulation in healthy subjects (caspase-1) | caspase-3 up-regulation in RBCs (caspase-3; COVID-19 plasma incubated samples) | baseline caspase-3 expression levels in RBCs (caspase-3; influenza-plasma incubated samples) | serious adverse events (mild COVID-19; 25 mg BID for 14 days) | safety and tolerability (mild COVID-19; 25 mg BID for 14 days, 2 weeks of dosing and week 10 follow up, compared to placebo) | resolution of symptoms most commonly associated with mild COVID-19 (cough, headache, fatigue) (mild COVID-19; 25 mg BID for 14 days, at day 7, continued through Day 45, patients who completed treatment) | caspase biomarkers (mild COVID-19; all subjects in the EMR treatment group) | safety and tolerance profile in humans [2]
1 | C[C@H](NC(=O)C(=O)Nc1ccccc1C(C)(C)C)C(=O)N[C@@H](CC(=O)O)C(=O)COc1c(F)c(F)cc(F)c1F [Emricasan, (3S)-3-{[(2S)-2-{[2-(2-tert-butylanilino)-2-oxoacetyl]amino}propanoyl]amino}-4-oxo-5-(2,3,5,6-tetrafluorophenoxy)pentanoic acid] | decrease | ⅓ | suppressed | prevented its upregulation | suppressed | did not change | no reports of serious adverse events | safe and well tolerated | complete resolution | decreases | excellent safety and tolerance profile
2 | CCO[C@@H]1OC(=O)C[C@@H]1NC(=O)[C@@H]1CCCN1C(=O)[C@@H](NC(=O)c1ccc(N)c(Cl)c1)C(C)(C)C [VX765] |  |  | did not show a strong similar suppressive effect |  |  |  |  |  |  |  | 
